Consider seven compounds from patent US20240398805A1, “QUINAZOLINE DERIVED COMPOUNDS AS EGFR INHIBITORS AND THEIR USES THEREOF” (ACCUTAR BIOTECHNOLOGY INC., priority 2021, published 2024).

SMILES strings stand for the structures.

Common to all, as to assay type: cell-based
The subject of one assay is HCC827 cells. Put plainly: Cell growth inhibition (CellTiter-Glo, 3 days) in HCC827. Particulars: Homo sapiens, 72 h, 3 days after administration. On the procedure: (§1) 2. Cell Growth Inhibition for HCC827, HCC827-SVD, HCC827-ASV, HCC827-YVMA and A431.
(§2) HCC827(ATCC), HCC827-SVD, HCC827-ASV, HCC827-YVMA were seeded in 96-well plates at 5000 cells/well in 90 μl of RPMI growth medium containing 10% FBS and 1% Penicillin Streptomycin. A431 (ATCC) cells were seed in 96-well plates at 5000 cells/well in 90 μl of DMEM growth medium containing 10% FBS and 1% Penicillin Streptomycin. Cells were incubated at 3700 overnight. The following day, the test compound was administered to the cells by using 1 Ox compound stock solution prepared in growth medium at various concentrations. After administration of the compound, cells were then incubated at 3700 for 3 days. Before CeIlTiter-Glo assay, the plates were equilibrated at room temperature for approximately 10 minutes. 100 ul of CelTiter-Glo® Reagent (Promega) was added to each well. The plates were then incubated at room temperature for 10 minutes and luminescence was recorded by EnSpire plate reader (PerkinElmer).
On the technique in general: In ATP-based viability assays light output follows the ATP content of the culture.

In assay [1] the test system is HCC827-SVD cells (human EGFR exon 20 insertion mutant D770_N771 insSVD). Put plainly: Cell growth inhibition (CellTiter-Glo, 3 days) in HCC827-SVD. The settings on record: 72 h, 3 days after administration. On the procedure:
(§3) 1. Preparation of HCC827-SVD, HCC827-ASV and HCC827-YVMA Cell Lines
HCC827-SVD cell line were generated by first transducing HCC827 cells (ATCC) with lentiviral particles expressing codon-optimized human EGFR exon 20 insertion mutant D770_N771 insSVD, and then selecting under 5 μg/ml purimycin treatment for a week.
The resulting cells were further transduced with lentiviral particles carrying EGFR sgRNA and CAS9 to knockout the endogenous alleles of EGFR, and then selected under 500 μg/ml hygromycin B treatment for two weeks. Single clone was subsequently generated by limiting dilution approach. Endogenous EGFR knockout was confirmed by Sanger sequencing of cell genomic DNA and expression of exogenous mutant EGFR was verified by Western blot analysis.
as §1, §2

The test system of assay [2] is HCC827-ASV cells (human EGFR exon 20 insertion mutant A769_D770insASV). Put plainly: Cell growth inhibition (CellTiter-Glo, 3 days) in HCC827-ASV. The settings on record: 72 h, 3 days after administration.
From the text: as §3
(§4) HCC827-ASV and HCC827-YVMA cell lines were generated in the similar approach as HCC827-SVD except that HCC827 cells (ATCC) were first transduced with lentiviral particles expressing codon-optimized human EGFR exon 20 insertion mutant A769_D770insASV and human ERBB2 exon20 insertion mutant A775_G776ins YVMA, respectively.
as §1, §2

The test system of assay [3] is HCC827-YVMA cells (human ERBB2 exon20 insertion mutant A775_G776ins YVMA). Put plainly: Cell growth inhibition (CellTiter-Glo, 3 days) in HCC827-YVMA. The settings on record: 72 h, 3 days after administration.
From the text: as §3, §4, §1, §2

A further assay has as its system A431 cells. Put plainly: Cell growth inhibition (CellTiter-Glo, 3 days) in A431. The settings on record: Homo sapiens, A-431, 72 h, 3 days after administration. On the procedure:
as §1, §2

Broadly, the GI50 is the concentration giving 50% growth inhibition. For the compound `C=CC(=O)N1CCC(Nc2cc3c(Nc4ccc(Oc5ccn(-c6cnc(OC)nc6)n5)cc4F)ncnc3cc2OC)CC1` [Compound 1, 1-(4-((4-((2-fluoro-4-((1-(2-methoxypyrimidin-5-yl)-1H-pyrazol-3-yl)oxy)phenyl)amino)-7-methoxyquinazolin-6-yl)amino)piperidin-1-yl)prop-2-en-1-one], the GI50 lay within 0.3 to 0.6 µM in the assay with HCC827 cells; 0.06 to 0.1 µM in assay [1]; 0.03 to 0.06 µM in assay [2]; 0.06 to 0.1 µM in assay [3]; 0.3 to 0.6 µM in the assay with A431 cells.

On to `C=CC(=O)N1CCC(Nc2cc3c(Nc4ccc(Oc5ccn(-c6cnc(C)c(F)c6)n5)cc4F)ncnc3cc2OC)CC1` [Compound 2, 1-(4-((4-((2-fluoro-4-((1-(5-fluoro-6-methylpyridin-3-yl)-1H-pyrazol-3-yl)oxy)phenyl)amino)-7-methoxyquinazolin-6-yl)amino)piperidin-1-yl)prop-2-en-1-one], for which the GI50 is less than 0.03 µM in the assay on HCC827 cells; less than 0.03 µM in assay [1]; less than 0.03 µM in assay [2]; less than 0.03 µM in assay [3]; 0.06 to 0.1 µM in the assay with A431 cells.

Take `C=CC(=O)N1CCC(Nc2cc3c(Nc4ccc(Oc5ccn(-c6ccc(C)nc6)n5)cc4F)ncnc3cc2OC)CC1` [Compound 3, 1-(4-((4-((2-fluoro-4-((1-(6-methylpyridin-3-yl)-1H-pyrazol-3-yl)oxy)phenyl)amino)-7-methoxyquinazolin-6-yl)amino)piperidin-1-yl)prop-2-en-1-one]: the GI50 fell in the range of 0.3 to 0.6 µM with HCC827 cells; 0.06 to 0.1 µM in assay [1]; 0.03 to 0.06 µM in assay [2]; 0.03 to 0.06 µM in assay [3]; 0.1 to 0.3 µM with A431 cells.

Take `C=CC(=O)N1CCC(Nc2cc3c(Nc4ccc(Oc5nc(-c6nnc(C(C)C)o6)cs5)cc4F)ncnc3cc2OC)CC1` [Compound 4, 1-(4-((4-((2-fluoro-4-((4-(5-isopropyl-1,3,4-oxadiazol-2-yl)thiazol-2-yl)oxy)phenyl)amino)-7-methoxyquinazolin-6-yl)amino)piperidin-1-yl)prop-2-en-1-one]: the GI50 in the assay on HCC827 cells lay within 0.3 to 0.6 µM; in assay [1], 0.1 to 0.3 µM; in assay [2], 0.1 to 0.3 µM; in assay [3], 0.1 to 0.3 µM; in the assay with A431 cells it was 0.3 to 0.6 µM.

As to `C=CC(=O)N1CCC(Nc2cc3c(Nc4ccc(Oc5ncc(-c6ccc(C)nc6)s5)cc4F)ncnc3cc2OC)CC1` [Compound 5, 1-(4-((4-((2-fluoro-4-((5-(6-methylpyridin-3-yl)thiazol-2-yl)oxy)phenyl)amino)-7-methoxyquinazolin-6-yl)amino)piperidin-1-yl)prop-2-en-1-one], the GI50 with HCC827 cells lay in the range of 0.1 to 0.3 µM; in assay [1] it was 0.1 to 0.3 µM; in assay [2], 0.1 to 0.3 µM; in assay [3] it was 0.1 to 0.3 µM; in the assay with A431 cells it was 0.3 to 0.6 µM.

Consider `C=CC(=O)N1CCC(Nc2cc3c(Nc4ccc(Oc5nc(-c6ccc(C)nc6)cs5)cc4F)ncnc3cc2OC)CC1` [Compound 6, 1-(4-((4-((2-fluoro-4-((4-(6-methylpyridin-3-yl)thiazol-2-yl)oxy)phenyl)amino)-7-methoxyquinazolin-6-yl)amino)piperidin-1-yl)prop-2-en-1-one], for which the GI50 was no less than 1 µM with HCC827 cells; 0.3 to 0.6 µM in assay [1]; 0.3 to 0.6 µM in assay [2]; 0.3 to 0.6 µM in assay [3]; 0.3 to 0.6 µM with A431 cells.

`C=CC(=O)N1CC[C@H](Oc2cc3c(Nc4ccc(Oc5ccn(-c6cnc(OC)nc6)n5)cc4F)ncnc3cc2OC)C1` [Compound 81, (S)-1-(3-((4-((2-fluoro-4-((1-(2-methoxypyrimidin-5-yl)-1H-pyrazol-3-yl)oxy)phenyl)amino)-7-methoxyquinazolin-6-yl)oxy)pyrrolidin-1-yl) prop-2-en-1-one]: the GI50 was in the range of 0.3 to 0.6 µM with HCC827 cells, 0.1 to 0.3 µM in assay [1] and 0.3 to 0.6 µM in the assay on A431 cells.
